Laboratory results: patent publication US8178658B2 (Dow AgroSciences, LLC, priority 2008, dated 2012)

Key:
[1] = tested on: beet armyworm (BAW; Spodoptera exigua: Lepidoptera); test: 96-well microtiter plate-based high throughput (HTS) diet bioassay on beet armyworm (BAW HTS); type: in vivo; conditions: BAW eggs, 12 μg test compound per well, mortality at 6 d post-treatment, mortality class
Procedure, shortened: (§1)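 Spodoptera exigua eggs on artificial diet in 96-well plates, surface-treated with 12 μg compound in DMSO-acetone-water; dark, 29° C, mortality at 6 d, six replicates. 128-well trays: second-instar larvae on diet treated at 50 μg/cm^2, 25° C, 14:10 light-dark, six days, mortality averaged over eight wells.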

[2] = tested on: beet armyworm (BAW; Spodoptera exigua: Lepidoptera); test: 128-well diet tray assay on beet armyworm (BAW 50); type: in vivo; conditions: 128-well diet tray assay; 50 μg/cm^2 of test compound on diet; second instar BAW larvae; mortality class
Procedure, shortened: as §1

[3] = 96-well microtiter plate HTS diet assay

| SMILES | BAW HTS ([1]; 96-well HTS diet bioassay) | BAW HTS [1, 3] | BAW 50 ug/cm2 [2] |
| --- | --- | --- | --- |
| CO[C@@H]1[C@@H](OC)[C@H](C)O[C@@H](O/N=C/c2ccc(-c3cn(-c4ccc(OC(F)(F)C(F)(F)F)cc4)cn3)cc2)[C@@H]1OC [Compound 51] | B (either (1) the compound was tested and less than 50 percent mortality was observed or (2) the compound was not tested) | B (either (1) the compound was tested and less than 50 percent mortality was observed or (2) the compound was not tested) | A (the compound was tested and at least 50 percent mortality was observed) |
| CCOC1C(C)OC(ON=Cc2ccc(-c3cn(-c4ccc(OC(F)(F)C(F)(F)F)cc4)cn3)cc2)C(OCC)C1OCC (stereo not drawn) [Compound 52] | B (either (1) the compound was tested and less than 50 percent mortality was observed or (2) the compound was not tested) | B (either (1) the compound was tested and less than 50 percent mortality was observed or (2) the compound was not tested) | A (the compound was tested and at least 50 percent mortality was observed) |
| CCOC(=O)C1C(c2ccc(/C=N/O[C@@H]3O[C@@H](C)[C@H](OC)[C@@H](OC)[C@H]3OC)cc2)=NN(c2ccc(OC(F)(F)F)cc2)C1C(=O)OCC (stereo partly drawn) [Compound 53] | A (the compound was tested and at least 50 percent mortality was observed) | A (the compound was tested and at least 50 percent mortality was observed) | A (the compound was tested and at least 50 percent mortality was observed) |
| COC(=O)C1CC(c2ccc(/C=N/O[C@@H]3O[C@@H](C)[C@H](OC)[C@@H](OC)[C@H]3OC)cc2)=NN1c1ccc(OC(F)(F)F)cc1 (stereo partly drawn) [Compound 54] | A (the compound was tested and at least 50 percent mortality was observed) | A (the compound was tested and at least 50 percent mortality was observed) | A (the compound was tested and at least 50 percent mortality was observed) |
| CCCC1C(c2ccc(/C=N/O[C@@H]3O[C@@H](C)[C@H](OC)[C@@H](OC)[C@H]3OC)cc2)=NN(c2ccc(OC(F)(F)F)cc2)C1C(=O)OCC (stereo partly drawn) [Compound 55] | A (the compound was tested and at least 50 percent mortality was observed) | A (the compound was tested and at least 50 percent mortality was observed) | A (the compound was tested and at least 50 percent mortality was observed) |
| CCOC(=O)C1C(C)C(c2ccc(/C=N/O[C@@H]3O[C@@H](C)[C@H](OC)[C@@H](OC)[C@H]3OC)cc2)=NN1c1ccc(OC(F)(F)F)cc1 (stereo partly drawn) [Compound 56] | A (the compound was tested and at least 50 percent mortality was observed) | A (the compound was tested and at least 50 percent mortality was observed) | A (the compound was tested and at least 50 percent mortality was observed) |
| COC1C(C)OC(ON=Cc2ccc(-n3cnc(-c4ccc(C(F)(F)F)cc4)c3)cc2)C(OC)C1OC (stereo not drawn) [Compound 57] | A (the compound was tested and at least 50 percent mortality was observed) | A (the compound was tested and at least 50 percent mortality was observed) | A (the compound was tested and at least 50 percent mortality was observed) |
| COC1C(C)OC(ON=Cc2cccc(-c3cn(-c4ccc(OC(F)(F)F)cc4)cn3)c2)C(OC)C1OC (stereo not drawn) [Compound 58] | A (the compound was tested and at least 50 percent mortality was observed) | A (the compound was tested and at least 50 percent mortality was observed) | A (the compound was tested and at least 50 percent mortality was observed) |
| COC1C(C)OC(ON=Cc2ccc(-c3cn(-c4ccc(OC(F)(F)F)c(C(F)(F)F)c4)cn3)cc2)C(OC)C1OC (stereo not drawn) [Compound 59] | A (the compound was tested and at least 50 percent mortality was observed) | A (the compound was tested and at least 50 percent mortality was observed) | A (the compound was tested and at least 50 percent mortality was observed) |
| CCCc1ccc(-c2cc(-c3ccc(C=NOC4OC(C)C(OC)C(OC)C4OC)cc3)no2)cc1 (stereo not drawn) [Compound 60] | A (the compound was tested and at least 50 percent mortality was observed) | A (the compound was tested and at least 50 percent mortality was observed) | A (the compound was tested and at least 50 percent mortality was observed) |
| CCCCOc1ccc(-c2cc(-c3ccc(C=NOC4OC(C)C(OC)C(OC)C4OC)cc3)no2)cc1 (stereo not drawn) [Compound 61] | A (the compound was tested and at least 50 percent mortality was observed) | A (the compound was tested and at least 50 percent mortality was observed) | A (the compound was tested and at least 50 percent mortality was observed) |
| COc1ccc(-c2nc(-c3ccc(C=NOC4OC(C)C(OC)C(OC)C4OC)cc3)cs2)cc1 (stereo not drawn) [Compound 62] | A (the compound was tested and at least 50 percent mortality was observed) | A (the compound was tested and at least 50 percent mortality was observed) | A (the compound was tested and at least 50 percent mortality was observed) |
| COC1C(C)OC(ON=Cc2ccc(-c3csc(-c4ncc(C(F)(F)F)cc4Cl)n3)cc2)C(OC)C1OC (stereo not drawn) [Compound 63] | A (the compound was tested and at least 50 percent mortality was observed) | A (the compound was tested and at least 50 percent mortality was observed) | A (the compound was tested and at least 50 percent mortality was observed) |
| COC1C(C)OC(ON=Cc2ccc(-c3csc(-c4ccc(OCC(F)(F)F)nc4)n3)cc2)C(OC)C1OC (stereo not drawn) [Compound 64] | A (the compound was tested and at least 50 percent mortality was observed) | A (the compound was tested and at least 50 percent mortality was observed) | A (the compound was tested and at least 50 percent mortality was observed) |
| COC1C(C)OC(ON=Cc2ccc(-c3csc(-c4ccc(C(F)(F)F)cc4)n3)cc2)C(OC)C1OC (stereo not drawn) [Compound 65] | A (the compound was tested and at least 50 percent mortality was observed) | A (the compound was tested and at least 50 percent mortality was observed) | A (the compound was tested and at least 50 percent mortality was observed) |
| COC1C(C)OC(ON=Cc2ccc(-c3csc(-c4ccc(C(F)(F)F)nc4)n3)cc2)C(OC)C1OC (stereo not drawn) [Compound 66] | A (the compound was tested and at least 50 percent mortality was observed) | A (the compound was tested and at least 50 percent mortality was observed) | A (the compound was tested and at least 50 percent mortality was observed) |
